Laboratory results taken from patent US8519149B2, “Tricyclic compounds as mPGES-1 inhibitors” (Glenmark Pharmaceuticals S.A., priority 2010, dated 2013).

Molecular target: T1, Recombinant human mPGES-1 (Homo sapiens, UniProt O14684)
T1 sequence (O14684 1-152): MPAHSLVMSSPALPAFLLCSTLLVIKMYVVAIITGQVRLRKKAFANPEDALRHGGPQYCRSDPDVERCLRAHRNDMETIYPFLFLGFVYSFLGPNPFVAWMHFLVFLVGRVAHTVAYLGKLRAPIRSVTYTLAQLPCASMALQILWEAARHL
Assay: In-vitro mPGES-1 enzyme inhibition assay (PGE2 formation from PGH2, HTRF detection)
Format: biochemical
Details: for inhibition at 1 µM: 1 μM test compound, read-out: Percentage inhibition at 1 μM; for inhibition at 1 µM / inhibition at 10 µM: recombinant human mPGES-1 microsomal fraction; for inhibition at 10 µM: 10 μM test compound, read-out: Percentage inhibition at 10 μM; for IC50: class symbols, selected examples
Excerpt: In-Vitro Protocol for Screening of mPGES-1 Inhibitors: mPGES-1 (microsomal prostaglandin E synthase-1) is a microsomal enzyme that converts endoperoxide substrate PGH2 (prostaglandin H2) to product PGE2 (prostaglandin E2) by isomerization in the presence of reduced glutathione (GSH). mPGES-1 inhibitors were screened by assessing their ability to inhibit formation of PGE2 from PGH2 in presence of mPGES-1 using anti-PGE2 antibody based detection method. […] Assay was set up using crude microsomal fractions at protein concentration of 40-60 μg/mL. […] Final concentration of DMSO in reaction was 0.5% (v/v). Negative controls comprised of all assay reagents except the enzyme. Positive controls comprised of enzyme reaction in the absence of any inhibitor. […] Reaction was stopped by addition of Stannous chloride (11 mg/ml) and PGE2 levels were measured ([…] et al. […] Inhibition of mPGES-1 enzyme activity was measured using percent of reaction occurring in the positive control. Concentration response curves were plotted using percent inhibition of maximum enzyme reaction. IC50 value was calculated from concentration response curve by nonlinear regression analysis using GraphPad PRISM software.

Compound	inhibition at 1 µM [%]	inhibition at 10 µM [%]	IC50 [nM]
Cn1c(Nc2c(Cl)cncc2Cl)nc2cc(C(=O)Nc3ccc(C4CC4)cc3)c3c(c21)CC(C)(C)O3 [Example-216, N-(4-Cyclopropylphenyl)-2-((3,5-dichloropyridin-4-yl)amino)-1,7,7-trimethyl-7,8-dihydro-1H-benzofuro[4,5-d]imidazole-5-carboxamide]	96.5	96.4	–
CC1(C)Cc2c(c(C(=O)Nc3ccc(F)c(C(F)(F)F)c3)cc3nc(Nc4c(Cl)cncc4Cl)[nH]c23)O1 [Example-196, 2-((3,5-Dichloropyridin-4-yl)amino)-N-(4-fluoro-3-(trifluoromethyl)phenyl)-7,7-dimethyl-7,8-dihydro-1H-benzofuro[4,5-d]imidazole-5-carboxamide]	100	98.8	–
Cc1nc2c(o1)c(C(=O)Nc1ccc(C(C)(C)C)cc1)cc1nc(Nc3c(Cl)cccc3Cl)[nH]c12 [Example-180, N-(4-tert-Butylphenyl)-7-[(2,6-dichlorophenyl)amino]-2-methyl-8H-imidazo[4,5-e][1,3]benzoxazole-4-carboxamide]	98.7	97.3	< 50
CC1(C)Cc2c(c(C(=O)Nc3cc(F)c(F)cc3F)cc3nc(Nc4c(Cl)cncc4Cl)[nH]c23)O1 [Example-199, 2-((3,5-Dichloropyridin-4-yl)amino)-7,7-dimethyl-N-(2,4,5-trifluorophenyl)-7,8-dihydro-1H-benzofuro[4,5-d]imidazole-5-carboxamide]	99.4	100	< 50
CC1(C)Cc2c(c(C(=O)Nc3ccc(F)cc3C(F)(F)F)cc3nc(Nc4c(F)cccc4Cl)[nH]c23)O1 [Example-117, 2-[(2-Chloro-6-fluorophenyl)amino]-N-[4-fluoro-2-(trifluoromethyl)phenyl]-7,7-dimethyl-7,8-dihydro-1H-furo[3,2-e]benzimidazole-5-carboxamide]	100	98.7	< 50
CCC(C)(C)NC(=O)c1cc2nc(Nc3c(Cl)cccc3Cl)[nH]c2c2c1OC(C)(C)C2 [Example-41, 2-[(2,6-Dichlorophenyl)amino]-7,7-dimethyl-N-(2-methylbutan-2-yl)-7,8-dihydro-1H-furo[3,2-e]benzimidazole-5-carboxamide]	99.2	95.7	< 50
Cc1cc2c(o1)c(C(=O)Nc1ccc(Br)cc1)cc1nc(Nc3c(Cl)cccc3Cl)[nH]c12 [Example-66, N-(4-Bromophenyl)-2-[(2,6-dichlorophenyl)amino]-7-methyl-1H-furo[3,2-e]benzimidazole-5-carboxamide]	96.4	95.2	< 50
CC1(C)Cc2c(c(C(=O)Nc3cc(C4CC4)ccc3F)cc3nc(Nc4c(F)cccc4Cl)[nH]c23)O1 [Example-134, 2-((2-Chloro-6-fluorophenyl)amino)-N-(5-cyclopropyl-2-fluorophenyl)-7,7-dimethyl-7,8-dihydro-1H-benzofuro[4,5-d]imidazole-5-carboxamide]	99.9	99.4	< 50
Cc1nc2c(o1)c(C(=O)Nc1ccc(C(F)(F)F)cc1)cc1nc(Nc3c(Cl)cccc3Cl)[nH]c12 [Example-178, 7-[(2,6-Dichlorophenyl)amino]-2-methyl-N-[4-(trifluoromethyl)phenyl]-8H-imidazo[4,5-e][1,3]benzoxazole-4-carboxamide]	91.4	98.2	< 50
CC1(C)Cc2c(c(C(=O)Nc3cc(C(F)F)ccc3F)cc3nc(Nc4c(F)cccc4Cl)[nH]c23)O1 [Example-131, 2-((2-Chloro-6-fluorophenyl)amino)-N-(5-(difluoromethyl)-2-fluorophenyl)-7,7-dimethyl-7,8-dihydro-1H-benzofuro[4,5-d]imidazole-5-carboxamide]	96.9	98.1	< 50
CC1(C)Cc2c(c(C(=O)NCC3CCCCC3)cc3nc(Nc4c(F)cccc4Cl)[nH]c23)O1 [Example-42, 2-[(2-Chloro-6-fluorophenyl)amino]-N-(cyclohexylmethyl)-7,7-dimethyl-7,8-dihydro-1H-furo[3,2-e]benzimidazole-5-carboxamide]	83.2	89.9	< 50
CC(NC(=O)c1cc2nc(Nc3c(Cl)cncc3Cl)[nH]c2c2c1OC(C)(C)C2)C1CCCCC1 (centres unmarked) [Example-5, N-(1-Cyclohexylethyl)-2-[(3,5-dichloropyridin-4-yl)amino]-7,7-dimethyl-7,8-dihydro-1H-furo[3,2-e]benzimidazole-5-carboxamide]	97.7	97.8	< 50
CC1(C)Cc2c(c(C(=O)Nc3cc(C4CC4)ccc3F)cc3nc(Nc4c(Cl)cncc4Cl)[nH]c23)O1 [Example-203, N-(5-Cyclopropyl-2-fluorophenyl)-2-((3,5-dichloropyridin-4-yl)amino)-7,7-dimethyl-7,8-dihydro-1H-benzofuro[4,5-d]imidazole-5-carboxamide]	100	94.8	< 50
Cc1cc2c(o1)c(C(=O)Nc1ccc(C(F)(F)F)cc1)cc1nc(Nc3c(Cl)cncc3Cl)[nH]c12 [Example-32, 2-[(3,5-Dichloropyridin-4-yl)amino]-7-methyl-N-[4-(trifluoromethyl)phenyl]-1H-furo[3,2-e]benzimidazole-5-carboxamide]	99	100	–
CC1(C)Cc2c(c(C(=O)Nc3ccc(C(C)(C)C)cc3)cc3nc(Nc4c(F)cccc4Cl)[nH]c23)O1 [Example-114, N-(4-tert-Butylphenyl)-2-[(2-chloro-6-fluorophenyl)amino]-7,7-dimethyl-7,8-dihydro-1H-furo[3,2-e]benzimidazole-5-carboxamide]	99.4	99.1	< 50
CC1(C)Cc2c(c(C(=O)Nc3ccccc3C(F)(F)F)cc3nc(Nc4c(Cl)cccc4Cl)[nH]c23)O1 [Example-75, 2-[(2,6-Dichlorophenyl)amino]-7,7-dimethyl-N-[2-(trifluoromethyl)phenyl]-7,8-dihydro-1H-furo[3,2-e]benzimidazole-5-carboxamide]	94.8	95	< 50
Cc1ccnc(Cl)c1Nc1nc2cc(C(=O)Nc3cccc(C(F)(F)F)c3)c3c(c2[nH]1)CC(C)(C)O3 [Example-137, 2-((2-Chloro-4-methylpyridin-3-yl)amino)-7,7-dimethyl-N-(3-(trifluoromethyl)phenyl)-7,8-dihydro-1H-benzofuro[4,5-d]imidazole-5-carboxamide]	95.3	100	< 50
Cc1cc2c(o1)c(C(=O)NC(C)C(C)(C)C)cc1nc(Nc3c(Cl)cncc3Cl)[nH]c12 (centres unmarked) [Example-23, 2-[(3,5-Dichloropyridin-4-yl)amino]-N-(3,3-dimethylbutan-2-yl)-7-methyl-1H-furo[3,2-e]benzimidazole-5-carboxamide]	94	97.1	< 50
CC(O)CNC(=O)c1cc2nc(Nc3c(Cl)cccc3Cl)[nH]c2c2c1OC(C)(C)C2 (centres unmarked) [Example-43, 2-[(2,6-Dichlorophenyl)amino]-N-(2-hydroxypropyl)-7,7-dimethyl-7,8-dihydro-1H-furo[3,2-e]benzimidazole-5-carboxamide]	43.8	72.3	< 50
CC1(C)Cc2c(c(C(=O)Nc3cc(F)c(F)cc3F)cc3nc(Nc4c(F)cccc4Cl)[nH]c23)O1 [Example-193, 2-((2-Chloro-6-fluorophenyl)amino)-7,7-dimethyl-N-(2,4,5-trifluorophenyl)-7,8-dihydro-1H-benzofuro[4,5-d]imidazole-5-carboxamide]	96.4	94.7	< 50
Cc1nc2c(o1)c(C(=O)Nc1ccc(F)c(C(F)(F)F)c1)cc1nc(Nc3c(F)cccc3Cl)[nH]c12 [Example-187, 7-((2-Chloro-6-fluorophenyl)amino)-N-(4-fluoro-3-(trifluoromethyl)phenyl)-2-methyl-8H-imidazo[4′,5′:5,6]benzo[1,2-d]oxazole-4-carboxamide]	95.8	83	< 50
CC1(C)Cc2c(c(C(=O)Nc3ccc(C(F)(F)F)nc3)cc3nc(Nc4c(Cl)cccc4Cl)[nH]c23)O1 [Example-166, 2-((2,6-Dichlorophenyl)amino)-7,7-dimethyl-N-(6-(trifluoromethyl)pyridin-3-yl)-7,8-dihydro-1H-benzofuro[4,5-d]imidazole-5-carboxamide]	97.7	99.6	–
Cn1c(Nc2c(F)cccc2Cl)nc2cc(C(=O)Nc3ccc(C(F)(F)F)nc3)c3c(c21)CC(C)(C)O3 [Example-153, 2-((2-Chloro-6-fluorophenyl)amino)-1,7,7-trimethyl-N-(6-(trifluoromethyl)pyridin-3-yl)-7,8-dihydro-1H-benzofuro[4,5-d]imidazole-5-carboxamide]	100	99.9	< 50
